From US8912121B2, “Herbicidal compositions comprising 4-amino-3-chloro-5-fluoro-6-(4-chloro-2-fluoro-3-methoxyphenyl)pyridine-2-carboxylic acid or a derivative thereof and certain PS II inhibitors” (Dow Agrosciences LLC, priority 2012, dated 2014) come the findings set out here.

The assay relates to CYPRO (Cyperus rotundus, purple nutsedge). Put plainly: In-water applied mixtures, transplanted paddy rice, greenhouse. It is filed as in vivo, Cyperus rotundus L. Particulars: 19 DAA. Here is the method: Weed seeds or nutlets of the desired test plant species were planted in puddled soil (mud) prepared by mixing a shredded, non-sterilized mineral soil (50.5 percent silt, 25.5 percent clay, and 24 percent sand, with a pH of about 7.6 and an organic matter content of about 2.9 percent) and water at a 1:1 volumetric ratio. The prepared mud was dispensed in 365 mL aliquots into 16-ounce (oz.) non-perforated plastic pots with a surface area of 86.59 square centimeters (cm^2) leaving a headspace of 3 centimeters (cm) in each pot Mud was allowed to dry overnight prior to planting or transplanting. Rice seeds were planted in Sun Gro MetroMix® 306 planting mixture, which typically has a pH of 6.0 to 6.8 and an organic matter content of about 30 percent, in plastic plug trays. Seedlings at the second or third leaf stage of growth were transplanted into 840 mL of mud contained in 32-oz. non-perforated plastic pots with a surface area of 86.59 cm^2 4 days prior to herbicide application. The paddy was created by filling the headspace of the pots with 2.5 to 3 cm of water. When required to ensure good germination and healthy plants, a fungicide treatment and/or other chemical or physical treatment was applied. The plants were grown for 4-22 days in a greenhouse with an approximate 14 h photoperiod which was maintained at about 29° C during the day and 26° C. during the night. Nutrients were added as Osmocote® (19:6:12, N:P:K+ minor nutrients) at 2 g per 16-oz. pot and 4 g per 32-oz. pot. Water was added on a regular basis to maintain the paddy flood, and supplemental lighting was provided with overhead metal halide 1000-Watt lamps as necessary. The plants were employed for testing when they reached the first through fourth true leaf stage.
Treatments consisted of the acid or esters of 4-amino-3-chloro-5-fluoro-6-(4-chloro-2-fluoro-3-methoxy-phenyl)pyridine-2-carboxylic acid (compound A) each formulated as an SC (suspension concentrate) and various herbicidal components alone and in combination. Forms of compound A were applied on an acid equivalent basis.
Other herbicidal components were applied on an active ingredient basis and included photosystem II (PSII)-inhibits propanil formulated as […] bentazon-sodium formulated as Basagran®, and simetryne (technical grade material).
Treatment requirements for each compound or herbicidal component were calculated based upon the rates being tested, the concentration of active ingredient or acid equivalent in the formulation, an application volume of 2 mL per component per pot, and an application area of 86.59 cm^2 per pot.
For formulated compounds, a measured amount was placed in an individual 100 or 200 mL glass vial and was dissolved in a volume of 1.25% (v/v) Agri-Dex® crop oil concentrate to obtain application solutions.
For technical grade compounds, a weighed amount was placed in an individual 100 to 200 mL glass vial and was dissolved in a volume of acetone to obtain concentrated stock solutions. […] The concentrated stock solutions obtained were diluted with an equivalent volume of an aqueous mixture containing 2.5% (v/v) crop oil concentrate so that the final application solutions contained 1.25% (v/v) crop oil concentrate.
Applications were made by injecting with a pipetter appropriate amounts of the application solutions, individually and sequentially, into the aqueous layer of the paddy. Control plants were treated in the same manner with the solvent blank. Applications were made so that all treated plant material received the same concentrations of acetone and crop oil concentrate.
The treated plants and control plants were placed in a greenhouse as described above and water was added as needed to maintain a paddy flood. After approximately 3 weeks the condition of the test plants as compared with that of the untreated plants was determined visually and scored on a scale of 0 to 100 percent where 0 corresponds to no injury or growth inhibition and 100 corresponds to complete kill. […]

`COc1c(Cl)ccc(-c2nc(C(=O)OCc3ccccc3)c(Cl)c(N)c2F)c1F` [Compound A Benzyl Ester, benzyl ester of 4-amino-3-chloro-5-fluoro-6-(4-chloro-2-fluoro-3-methoxy-phenyl)pyridine-2-carboxylic acid]: the “Visual Weed Control (%) Obs” value is reported as 50% (8 g ae/ha), 85% (16 g ae/ha) and 90% (32 g ae/ha).
